Experimental data: patent US9084779B2, “Conjugates of nitroimidazoles and their use as chemotherapeutic agents” (The Johns Hopkins University, priority 2011, dated 2015)
Values after ≈ are worked out from the molar mass of the structure shown.

Legend:
[1] = Determination of water solubility by UV absorbance of a saturated solution; assay type: physicochemical; details: for Increment (solubility): PEG tether compound in comparison with the —CH2CH2— tether compound of the same pair (7c/7a, 7d/7b, 10c/10a, 10d/10b); for solubility at 1 h: thermodynamic from solid, water, saturated solution, sonicated at 25° C., stirred at room temperature 1.0 h, filtered
Procedure: The aqueous solubility of all eight compounds was assessed by using a technique involving measurement of their UV absorbance^29.
Determination of Water Solubility of Compounds 7a-d and 10a-d. A saturated solution was prepared by addition of a test compound (7a-d and 10a-d; ca. 1.00 mg) to water (1.00 mL), which was sonicated at 25° C. for 5.0 min and stirring at room temperature for an additional 1.0 h. After filtration with Millipore filters (0.45-μm-pore-size polyvinylidene fluoride), the supernatant was analyzed by UV spectroscopy with concentration determined from absorbance, standardized against calibration data. Standard curves for each compound were obtained by plotting absorbance against concentration. The concentration range of the standard solutions was 1.0-10 μg/mL. For all standards, their curves were linear with γ>0.996.

[2] = system: Hep3B human hepatocellular carcinoma cells; test: MTS tetrazolium cell proliferation assay, 72-h exposure; assay type: cell-based; details: normoxic (21% O2), read-out: IC50 Normoxic (N)
Source text: Anti-proliferative assay. The human hepatocellular carcinoma cell line Hep3B was purchased from American Type culture Collection (ATCC, Manassas, Va.). Dulbecco's Modified Eagle Medium (DMEM) and penicillin/streptomycin (P/S) were obtained from GIBCO Invitrogen. Fetal Bovine serum (FBS) was obtained from Thermo Scientific Hyclone. Dimethyl sulfoxide (DMSO-Hybri-Max) was purchased from Sigma-Aldrich Co. and the CellTiter 96 AQueous One Solution Cell Proliferation Assay (MTS) was acquired from Promega Corp. Hep3B cells were maintained in DMEM supplemented with 10% FBS and 1× P/S solution. Cultures were incubated at 37° C. in a 5% CO2 atmosphere with 99% humidity. Stock solutions of test compounds were prepared in DMSO for use in the cell culture viability assays.
MTS tetrazolium cell proliferation assay. The viability of Hep3B cells exposed to the synthesized compounds was determined by the MTS assay. Briefly, Hep3B cells were plated in 96-well plates at a density of 3.0×10^3 cells/well and incubated for 24-h before treatment. At the initiation of treatment, the growth media was replaced with 200 μL of media containing increasing concentrations of the test compounds in triplicate wells. The final DMSO concentration in the media was 1.0% including the media added to the control wells minus the test compound. After a 72-hour incubation, 40 μL of MTS solution was added to each well and the plates were incubated for an additional 3.0 hours. The plates were then read at 490 nm on a Biotek Instruments PowerWave 200 microplate reader. For each experiment the percent growth inhibition relative to the control (no drug addition) was calculated and a dose inhibition curve was generated. The concentration of drug required to inhibit cell growth by 50% (IC50) compared to the control cells was then determined by non-linear regression using PSI-Plot software (Poly Software International).
Antiproliferative activity. The anti-cancer activities of the parent compounds 3 and 8 and the conjugated compounds 7a-d and 10a-d were tested against Hep3B human hepatocellular carcinoma cells in culture.

[3] = system: Hep3B human hepatocellular carcinoma cells; test: Hypoxia targeting assay, 5-h exposure then 5 days growth, MTS; assay type: cell-based; details: for Ratio IC50 (N)/IC50 (H): normoxic versus hypoxic
Procedure: Hypoxia targeting assay. Hep3B cells, plated in 96-well plates at a density of 3.0×10^3 cells/well, were incubated overnight and then treated with the test compounds for 5.0 hours at under hypoxic (1% O2) or normoxic (21% O2) conditions. Exposure of cells to hypoxia was carried out in a PROOX C-Chamber with O2 and CO2 levels modulated by a PROOX Model C21 Controller (BioSpherix). At the end of the treatment period, the wells were washed with phosphate buffered saline (PBS) and fresh compound-free media was added. The cells were cultured for an additional 5 days under normoxic conditions and then assayed for cell proliferation using the MTS assay.
Hypoxia targeting. Nitroimidazoles are converted to reactive compounds in hypoxic cells. Therefore it is of importance to compare the antiproliferative activities of the nitroimidazole conjugated compounds against Hep3B cells under normoxic and hypoxic conditions. In these experiments, Hep3B cells in culture were treated with each of the conjugated compounds 7c-d, 10c-d, or the parent compounds 3 or 8 for a 5.0-hour period under normoxic (21% O2) or hypoxic (1.0% O2) conditions. After treatment, the cells were returned to normal conditions and assayed for proliferation after 5 days of additional growth. […] The ratio between the IC50 values for each drug under normoxic versus hypoxic culture conditions was computed and used as a measure of the relative increase in potency.

[4] = system: HT29 human colorectal carcinoma cells; test: Cell viability by plating efficiency (colony formation after replating); assay type: cell-based; details: 40 μM, 48 h, diluted 10,000 fold and replated, colonies stained eight days later
Procedure: FIG. 6 depicts the plating efficiency of HT29 human colorectal carcinoma cells after treatment with DMSO, 40μ M3n and 40μ M3N-PEG-2NI. HT29 cells were treated for 48 h with 40 μM M3N, 40 μM M3N-PEG-2NI or the DMSO vehicle. At the end of the treatment period, the cells were diluted 10,000 fold and replated. Eight days later colonies were stained with methylene blue.
For the further assessment of cell viability by plating efficiency, cells (2×10^6 cells/100 mm dish) from the human colorectal carcinoma cell line HT29 were treated for 48 hours with 40 μM M3N, 40 μM M3N-PEG-2NI or the DMSO vehicle. At the end of the treatment period, the cells from each dish were released by trypsinization, diluted 10,000 fold and replated into new 100 mm dishes. Eight days later colonies were stained with 0.25% methylene blue in 50% ethanol

[5] = system: LNCaP human prostate cancer cells; test: Western blot analysis of 2-nitroimidazole induced protein adducts in cell culture; assay type: cell-based; details: 80 μM, 6 hours normoxic then 6 hours hypoxic or normoxic
Procedure: Western blot analysis of 2-nitroimidazole induced protein adducts in LNCaP cell cultures. Exponentially growing LNCaP human prostate cancer cells were treated with DMSO, 80 μM M3N-PEG-2NI or Hypoxyprobe-1 in standard media for 6 hours under normoxic conditions and then under hypoxic or normoxic conditions for additional 6 hours. Afterward the media was aspirated, the cells washed and ice cold RIPA lysis buffer was added and the cells lysed on ice for 15 minutes. The samples were centrifuged and the lysate collected. Cellular proteins in the extracts were analyzed for the presence of protein adducts using standard western blotting technique. The primary antibody was PAb2627 polyclonal antibody (1:200) directed against Hydroxyprobe-1 protein adducts. The secondary antibody was Anti-Rabbit HRP conjugate (1:2000). Detection was by chemiluminescence

[6] = system: Hep3B human hepatocellular carcinoma cells; test: MTT cell viability assay, 3 days; assay type: cell-based; details: normoxic conditions, 1% DMSO
Procedure: (§1) Additional cell culture, drug treatment and cell viability assays. HT29 human colorectal carcinoma cells, 786-0 human renal adenocarcinoma cells and Hep3B human hepatocellular carcinoma cells were obtained from ATCC and maintained in culture according to their recommendations. […] After the treatment period viability of the cells was determined with the MTT cell viability assay and dose response curves were generated using the calculated values of the percentage viable cells relative to the vehicle control.

[7] = system: HT29 human colorectal carcinoma cells; test: MTT cell viability assay, 3 days; assay type: cell-based; details: normoxic conditions, 1% DMSO
Procedure: as §1

[8] = system: 786-0 human renal adenocarcinoma cells; test: MTT cell viability assay, 3 days; assay type: cell-based; details: normoxic conditions, 1% DMSO
Procedure: as §1

[9] = system: subcutaneous LNCaP prostate cancer cell explants; test: Immunofluorescence analysis of 2-nitroimidazole induced protein adducts in mouse tumor explants; assay type: in vivo, nude mice; details: daily intravenous tail vein injection for three weeks
Procedure: Immunofluorescence analysis of 2-nitroimidazole induced protein adducts in mouse tumor explants. Nude mice with subcutaneous LNCaP prostate cancer cell explants were administered Hydroxyprobe-1, M3N or M3N-PEG-2NI for three weeks by daily intravenous tail vein injection with an additional injection 3 hours prior to euthanization. Tumors were removed from the euthanized mice by dissection and incubated in 30% sucrose/PBS overnight at 4° C. Excess sucrose was removed and the tissue was incubated in 30% sucrose/PBS:OCT (1:1) for 1 hour at room temperature. Afterward the tissue was frozen in 100% OCT. Frozen sections of […] were prepared and fixed in 4% PFA/PBS for 1 hour at room temperature. The sections were blocked overnight at 4° C. with 5% goat serum/PBS or at room temperature for 1 hour and then incubated with Hydroxyprobe-1 rabbit antiserum (1:200) overnight at 4° C. After three washes with PBS, the secondary antibody, mouse anti rabbit-FITC (1:1000) was added for 1 hour at room temperature. The sections were mounted using Vectashield and fluorescently imaged.

[10] = Homo sapiens, hypoxic (1.0% O2), then 5 days normoxic growth, read-out: IC50 Hypoxic (H)
[11] = Homo sapiens, normoxic (21% O2), then 5 days growth, read-out: IC50 Normoxic (N)
[12] = hypoxic (1.0% O2), then 5 days normoxic growth, read-out: IC50 Hypoxic (H)

Increment (solubility) [1] [fold] | solubility at 1 h [1] [µg/mL] | IC50 [2] [µM] | Compound | Ratio IC50 (N)/IC50 (H) [3] | further results
11.2 | 1.7 (≈ 3.52 µM) | 24.8 ± 8.7 | COc1ccc(C[C@H](C)[C@H](C)Cc2ccc(OCCn3ccnc3[N+](=O)[O-])c(OC)c2)cc1OC (racemic) [Compound 10b, (±)-(2R,3S)-4-(3,4-Dimethoxyphenyl)-1-[3-methoxy-4-[2-(2-nitro-1H-imidazol-1-yl)ethoxy]phenyl]-2,3-dimethylbutane] | – | –
– | 19.1 (≈ 31.1 µM) | 13.4 ± 3.4 | COc1ccc(C[C@H](C)[C@H](C)Cc2ccc(OCCOCCOCCOCCn3ccnc3[N+](=O)[O-])c(OC)c2)cc1OC (racemic) [Compound 10d, (±)-(2R,3S)-4-(3,4-Dimethoxyphenyl)-1-[3-methoxy-4-[12-(2-nitro-1H-imidazol-1-yl)-1,4,7,10-tetraoxadodecanyl]phenyl]-2,3-dimethylbutane] | 2.42 | IC50 [3, 10]: 49.1 ± 4.9 µM; IC50 [3, 11]: 119 ± 42.8 µM
10.5 | 1.76 (≈ 3.64 µM) | 15.8 ± 1.6 | COc1ccc(C[C@H](C)[C@H](C)Cc2ccc(OC)c(OCCn3cnc([N+](=O)[O-])c3)c2)cc1OC (racemic) [Compound 7a, (±)-(2R,3S)-4-(3,4-Dimethoxyphenyl)-1-[4-methoxy-3-[2-(4-nitro-1H-imidazol-1-yl)ethoxy]phenyl]-2,3-dimethylbutane] | – | –
– | – | – | COc1ccc(CC(C)C(C)Cc2ccc(OC)c(OC)c2)cc1O (stereo not drawn) [Compound 8, trimethyl NDGA, reference compound] | 1.28 | IC50 [3, 12]: 87.6 ± 8.7 µM
– | 10.5 (≈ 17.1 µM) | 12.5 ± 4.1 | COc1ccc(C[C@H](C)[C@H](C)Cc2ccc(OCCOCCOCCOCCn3cnc([N+](=O)[O-])c3)c(OC)c2)cc1OC (racemic) [Compound 10c, (±)-(2R,3S)-4-(3,4-Dimethoxyphenyl)-1-[3-methoxy-4-[12-(4-nitro-1H-imidazol-1-yl)-1,4,7,10-tetraoxadodecanyl]phenyl]-2,3-dimethylbutane] | 2.69 | IC50 [3, 10]: 52.1 ± 3.8 µM; IC50 [3, 11]: 140 ± 33.5 µM
– | – | – | COc1ccc(CC(C)C(C)Cc2ccc(OC)c(OC)c2)cc1O (stereo not drawn) [Compound 3, trimethyl NDGA, reference compound] | 1.58 | IC50 [3, 12]: 99 ± 0.6 µM
6.5 | 1.63 (≈ 3.37 µM) | 18.7 ± 4.1 | COc1ccc(C[C@H](C)[C@H](C)Cc2ccc(OCCn3cnc([N+](=O)[O-])c3)c(OC)c2)cc1OC (racemic) [Compound 10a, (±)-(2R,3S)-4-(3,4-Dimethoxyphenyl)-1-[3-methoxy-4-[2-(4-nitro-1H-imidazol-1-yl)ethoxy]phenyl]-2,3-dimethylbutane] | – | –
– | 18.5 (≈ 30.1 µM) | 13 ± 5.1 | COc1ccc(C[C@H](C)[C@H](C)Cc2ccc(OC)c(OCCOCCOCCOCCn3cnc([N+](=O)[O-])c3)c2)cc1OC (racemic) [Compound 7c, (±)-(2R,3S)-4-(3,4-Dimethoxyphenyl)-1-[4-methoxy-3-[12-(4-nitro-1H-imidazol-1-yl)-1,4,7,10-tetraoxadodecanyl]phenyl]-2,3-dimethylbutane] | 1.62 | IC50 [3, 10]: 64.3 ± 15.1 µM; IC50 [3, 11]: 104 ± 17.6 µM
– | – | – | tri-O-methyl NDGA [Compound M3N, reference compound] | – | Ability of HT29 cells to replicate after treatment (plating efficiency) [4]: able to replicate after treatment; Protein adducts by western blot (PAb2627 antibody) [5]: No protein adducts were detected; IC50 [6]: 15 to 30 µM; IC50 [7]: > 80 µM; IC50 [8]: 36 to 64 µM; Protein adducts in tumor sections by immunofluorescence [9]: little evidence of adduct formation
– | – | – | Cl.O=[N+]([O-])c1nccn1CC(O)CN1CCCCC1 (stereo not drawn) [Hydroxyprobe-1] | – | Protein adducts by western blot (PAb2627 antibody) [5]: showed evidence of protein adducts; Protein adducts in tumor sections by immunofluorescence [9]: Protein-adducts were also found
8.1 | 1.64 (≈ 3.39 µM) | 21.8 ± 4.5 | COc1ccc(C[C@H](C)[C@H](C)Cc2ccc(OC)c(OCCn3ccnc3[N+](=O)[O-])c2)cc1OC (racemic) [Compound 7b, (±)-(2R,3S)-4-(3,4-Dimethoxyphenyl)-1-[4-methoxy-3-[2-(2-nitro-1H-imidazol-1-yl)ethoxy]phenyl]-2,3-dimethylbutane] | – | –
